Data taken from ChEMBL document CHEMBL3232739, “Discovery of a potent and dissociated non-steroidal glucocorticoid receptor agonist containing an alkyl carbinol pharmacophore” (Bioorg Med Chem Lett, 2014).
Converted amounts (≈) assume the structure as drawn.

Key:
Mus musculus [1] = experiment: Toxicity in B10.RIII mouse assessed as body fate level in serum at 100 mg/kg, po qd for 5 weeks relative to control; assay type: organism-based; design: dose 100 mg/kg, route oral; details: in vivo, 840 h
[2] = Volume of distribution at steady state in Sprague-Dawley rat at 2 mg/kg, iv; assay type: ADME, organism-based; design: dose 2 mg/kg, route intravenous; details: in vivo, read-out: Vdss
[3] = biological target: T1, Mineralocorticoid receptor (Homo sapiens, UniProt P08235); experiment: Displacement of TAMRA-labeled dexamethasone from mineralocorticoid receptor (unknown origin) by fluorescence polarization assay
T1 sequence (P08235 whole entry): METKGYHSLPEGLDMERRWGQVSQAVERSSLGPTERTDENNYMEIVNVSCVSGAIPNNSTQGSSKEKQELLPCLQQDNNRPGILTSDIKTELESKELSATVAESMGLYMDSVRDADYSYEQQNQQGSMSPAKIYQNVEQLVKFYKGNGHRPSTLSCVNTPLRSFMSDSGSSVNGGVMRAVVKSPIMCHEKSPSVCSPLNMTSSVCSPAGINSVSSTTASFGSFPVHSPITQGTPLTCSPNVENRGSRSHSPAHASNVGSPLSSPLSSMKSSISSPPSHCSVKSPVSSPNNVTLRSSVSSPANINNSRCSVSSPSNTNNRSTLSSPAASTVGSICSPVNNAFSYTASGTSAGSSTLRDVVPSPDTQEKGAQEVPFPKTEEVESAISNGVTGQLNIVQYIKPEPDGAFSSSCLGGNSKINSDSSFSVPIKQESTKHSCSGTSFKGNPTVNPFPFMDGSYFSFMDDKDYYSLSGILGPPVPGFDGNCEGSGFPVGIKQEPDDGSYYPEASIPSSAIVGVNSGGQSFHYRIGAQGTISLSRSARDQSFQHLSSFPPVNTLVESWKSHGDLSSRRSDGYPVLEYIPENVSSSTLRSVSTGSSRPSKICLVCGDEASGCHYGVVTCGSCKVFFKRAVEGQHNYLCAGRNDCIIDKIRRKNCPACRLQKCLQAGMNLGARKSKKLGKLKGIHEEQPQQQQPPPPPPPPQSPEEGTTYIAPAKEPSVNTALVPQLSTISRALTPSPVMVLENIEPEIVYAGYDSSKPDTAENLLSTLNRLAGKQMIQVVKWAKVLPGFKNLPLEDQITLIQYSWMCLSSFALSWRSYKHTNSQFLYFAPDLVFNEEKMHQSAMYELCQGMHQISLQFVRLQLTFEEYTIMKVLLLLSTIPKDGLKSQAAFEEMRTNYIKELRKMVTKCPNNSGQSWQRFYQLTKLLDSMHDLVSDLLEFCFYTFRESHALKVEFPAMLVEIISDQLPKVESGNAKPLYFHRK

Glucocorticoid receptor [4] = biological target: T2, Glucocorticoid receptor (Homo sapiens, UniProt P04150)
T2 sequence (P04150 whole entry): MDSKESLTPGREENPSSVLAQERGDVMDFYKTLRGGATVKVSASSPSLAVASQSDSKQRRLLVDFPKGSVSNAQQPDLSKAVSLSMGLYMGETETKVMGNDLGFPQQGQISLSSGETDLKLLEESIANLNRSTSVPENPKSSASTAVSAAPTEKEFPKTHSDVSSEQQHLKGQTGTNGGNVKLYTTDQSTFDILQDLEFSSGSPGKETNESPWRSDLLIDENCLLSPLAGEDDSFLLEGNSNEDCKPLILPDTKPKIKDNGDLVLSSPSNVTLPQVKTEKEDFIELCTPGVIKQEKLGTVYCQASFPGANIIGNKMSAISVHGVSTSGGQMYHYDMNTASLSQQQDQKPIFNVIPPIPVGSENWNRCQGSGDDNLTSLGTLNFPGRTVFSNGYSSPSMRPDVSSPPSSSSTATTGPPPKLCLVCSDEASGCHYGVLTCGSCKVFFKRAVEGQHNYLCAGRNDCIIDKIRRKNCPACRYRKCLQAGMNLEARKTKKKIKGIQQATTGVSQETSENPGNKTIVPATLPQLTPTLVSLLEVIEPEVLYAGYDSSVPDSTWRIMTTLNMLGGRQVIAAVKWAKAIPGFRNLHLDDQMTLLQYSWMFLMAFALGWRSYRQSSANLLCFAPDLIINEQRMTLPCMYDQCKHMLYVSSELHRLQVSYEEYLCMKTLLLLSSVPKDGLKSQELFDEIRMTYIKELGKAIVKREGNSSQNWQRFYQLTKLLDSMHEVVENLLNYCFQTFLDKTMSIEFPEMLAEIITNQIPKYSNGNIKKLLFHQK
Description: Agonist activity at glucocorticoid receptor in human foreskin fibroblasts assessed as inhibition of IL-1-induced IL-6 production by trans-repression assay

[5] = AUC (infinity) in Sprague-Dawley rat at 30 mg/kg, po; assay type: ADME, organism-based; design: time infinity, dose 30 mg/kg, route oral; details: plasma
[6] = Clearance in Sprague-Dawley rat at 2 mg/kg, iv; assay type: ADME, organism-based; design: dose 2 mg/kg, route intravenous; details: in vivo
Homo sapiens [7] = species on record: Homo sapiens; experiment: Selectivity ratio of IC50 for progesterone receptor (unknown origin) to IC50 for glucocorticoid receptor (unknown origin)
[8] = Equilibrium solubility of the compound at pH 7.4; assay type: physicochemical; details: buffer
Mus musculus [9] = experiment: Antiarthritic activity in B10.RIII mouse collagen/complete Freund's adjuvant-induced arthritis model assessed as reduction of disease score at 100 mg/kg, po qd for 5 weeks relative to control; assay type: functional; design: scale not given: the % may be the effect or the level left
Mus musculus [10] = experiment: Toxicity in po dosed B10.RIII mouse assessed as triglyceride level in serum administered po qd for 5 weeks relative to control; assay type: organism-based; details: in vivo, 840 h
Glucocorticoid receptor [11] = biological target: T2, Glucocorticoid receptor; experiment: Transactivation of glucocorticoid receptor in human HeLa cells harboring MMTV promoter at 2 uM by luciferase reporter gene assay relative to dexamethasone; assay type: cell-based; details: read-out: Efficacy
[12] = Equilibrium solubility of the compound at pH 2.2; assay type: physicochemical; details: buffer
Homo sapiens [13] = species on record: Homo sapiens; experiment: Selectivity ratio of IC50 for mineralocorticoid receptor (unknown origin) to IC50 for glucocorticoid receptor (unknown origin)
[14] = Oral bioavailability in Sprague-Dawley rat at 30 mg/kg; assay type: ADME, organism-based; details: in vivo
Mus musculus [15] = experiment: Toxicity in B10.RIII mouse assessed as triglyceride level in serum at 30 mg/kg, po qd for 5 weeks relative to control; assay type: organism-based; design: dose 30 mg/kg, route oral; details: in vivo, 840 h
Mus musculus [16] = experiment: Toxicity in B10.RIII mouse assessed as insulin level in serum at 100 mg/kg, po qd for 5 weeks relative to control; assay type: organism-based; design: dose 100 mg/kg, route oral; details: in vivo, 840 h
Mus musculus [17] = experiment: Toxicity in po dosed B10.RIII mouse assessed as insulin level in serum administered po qd for 5 weeks relative to control; assay type: organism-based; details: in vivo, 840 h
[18] = Permeability across apical to basolateral side in human Caco2 cells; assay type: ADME, cell-based; details: Caco-2, read-out: permeability
Mus musculus [19] = experiment: Antiinflammatory activity in po dosed mouse assessed as inhibition of LPS-induced TNFalpha production; assay type: functional
Mus musculus [20] = experiment: Antiinflammatory activity in mouse assessed as inhibition of LPS-induced TNFalpha production at 1 mg/kg, po; assay type: functional
[21] = Efflux ratio of permeability from basolateral to apical side over apical to basolateral side in human Caco2 cells; assay type: ADME, cell-based; details: Caco-2
Mus musculus [22] = experiment: Toxicity in B10.RIII mouse assessed as body fate level in serum at 30 mg/kg, po qd for 5 weeks relative to control; assay type: organism-based; design: dose 30 mg/kg, route oral; details: in vivo, 840 h

SMILES: Cc1ccc(F)cc1C(C)(C)C[C@@](O)(Cc1cc2cnccc2[nH]1)C(C)(C)C
- Activity (Mus musculus [1]): -3%
- Vd [2]: 4 L/kg
- IC50 [3]: 420 nM
- IC50 (Glucocorticoid receptor [4]): 27 nM
- AUC(0-inf) [5]: 6730 ng·h/mL
- clearance [6]: 48 mL/min/kg
- Ratio IC50 (Homo sapiens [7]): > 100
- solubility thermodynamic [8]: 15 µg/mL (≈ 39.2 µM)
- Activity (Mus musculus [9]): -84%
- Activity (Mus musculus [10]): Dose-dependent effect
- Emax at 2 µM (Glucocorticoid receptor [11]): 1%
- solubility thermodynamic [12]: 840 µg/mL (≈ 2200 µM)
- Ratio IC50 (Homo sapiens [13]): > 100
- bioavailability [14]: 64%
- Activity (Mus musculus [15]): 29%
- Activity (Mus musculus [16]): 224%
- Activity (Mus musculus [17]): Dose-dependent effect
- Papp A→B [18]: 13.4 ×10⁻⁶ cm/s
- ED50 (Mus musculus [19]): < 1 mg/kg
- inhibition in vivo at 1 mg/kg (Mus musculus [20]): 82%
- efflux ratio [21]: 1.3
- Activity (Mus musculus [22]): -7%
